According to DBAASP:
Values after ≈ are worked out from the molar mass of the structure shown. Values joined by “and” are separate entries in the source; they are usually repeats but may differ in a detail not shown here. Identical values can stand only once. Each block holds one molecule with its values, some of them ahead of it.

What was measured:
Assay in all cases: ≥ marks a high value that may be exact or a test limit, other limits are often not marked, values filed in µg/mL are converted to µM
Escherichia coli JW0013 = tested on: Escherichia coli JW0013
[1] = tested on: Micrococcus luteus ATCC 9341
[2] = tested on: Pseudomonas aeruginosa ATCC 27853
Escherichia coli ML-35p = tested on: Escherichia coli ML-35p
[3] = tested on: Candida albicans ATCC 2002
Bacillus subtilis = tested on: Bacillus subtilis
[4] = tested on: Staphylococcus aureus ATCC 25923
Pseudomonas aeruginosa = tested on: Pseudomonas aeruginosa
[5] = tested on: Escherichia coli DH5alpha
Klebsiella pneumoniae = tested on: Klebsiella pneumoniae
Salmonella typhimurium = tested on: Salmonella typhimurium
[6] = tested on: Pseudomonas aeruginosa Ps4
[7] = tested on: Staphylococcus aureus ATCC 43300
[8] = tested on: Pseudomonas aeruginosa CMCCB 10104
Escherichia coli = tested on: Escherichia coli
[9] = tested on: Escherichia coli ATCC 25922
[10] = tested on: Pseudomonas aeruginosa PAO1
Aspergillus fumigatus = tested on: Aspergillus fumigatus

- MIC (Escherichia coli JW0013): 1.37 µM (≈ 3.3 µg/mL)
SMILES: CC[C@H](C)[C@H](NC(=O)[C@H](CCCN=C(N)N)NC(=O)[C@H](CCCN=C(N)N)NC(=O)[C@@H]1CCCN1C(=O)[C@@H]1CCCN1C(=O)[C@H](CCCN=C(N)N)NC(=O)[C@@H](NC(=O)[C@H](CCCN=C(N)N)NC(=O)[C@@H]1CCCN1C(=O)[C@H](CC(C)C)NC(=O)[C@H](Cc1ccc(O)cc1)NC(=O)[C@@H]1CCCN1C(=O)[C@@H]1CCCN1C(=O)[C@H](CCCCN)NC(=O)[C@H](CC(=O)O)NC(=O)[C@@H](N)C(C)C)[C@@H](C)CC)C(=O)N[C@@H](Cc1ccc(O)cc1)C(=O)N[C@@H](CC(N)=O)C(=O)N[C@@H](CCCN=C(N)N)C(N)=O [VDKPPYLPRIRPPRRIYNR]

- MIC (Escherichia coli JW0013): 1.94 µM (≈ 4.8 µg/mL)
SMILES: CC[C@H](C)[C@H](NC(=O)[C@H](CCCN=C(N)N)NC(=O)[C@H](CCCN=C(N)N)NC(=O)[C@@H]1CCCN1C(=O)[C@@H]1CCCN1C(=O)[C@H](CCCN=C(N)N)NC(=O)[C@@H]1CCCN1C(=O)[C@H](CCCN=C(N)N)NC(=O)[C@@H]1CCCN1C(=O)[C@H](CC(C)C)NC(=O)[C@H](Cc1ccc(O)cc1)NC(=O)[C@@H]1CCCN1C(=O)[C@@H]1CCCN1C(=O)[C@H](CCCCN)NC(=O)[C@H](CC(=O)O)NC(=O)[C@@H](N)Cc1c[nH]c2ccccc12)C(=O)N[C@@H](Cc1ccc(O)cc1)C(=O)N[C@@H](CC(N)=O)C(=O)N[C@@H](CCCN=C(N)N)C(N)=O [WDKPPYLPRPRPPRRIYNR]

- MIC [1]: 0.8 µM (≈ 1.46 µg/mL)
SMILES: CC[C@H](C)[C@H](N)C(=O)N[C@@H](CC(C)C)C(=O)N1CCC[C@H]1C(=O)N[C@@H](Cc1c[nH]c2ccccc12)C(=O)N[C@@H](CCCCN)C(=O)N[C@@H](Cc1c[nH]c2ccccc12)C(=O)N1CCC[C@H]1C(=O)N[C@@H](Cc1c[nH]c2ccccc12)C(=O)N[C@@H](Cc1c[nH]c2ccccc12)C(=O)N1CCC[C@H]1C(=O)N[C@@H](Cc1c[nH]c2ccccc12)C(=O)N[C@@H](CCCN=C(N)N)C(=O)N[C@@H](C)C(N)=O [ILPWKWPWWPWRA]

- MIC [1]: 0.2 µM (≈ 0.359 µg/mL)
SMILES: CC(C)C[C@H](N)C(=O)N1CCC[C@H]1C(=O)N[C@@H](Cc1c[nH]c2ccccc12)C(=O)N[C@@H](CCCCN)C(=O)N[C@@H](Cc1c[nH]c2ccccc12)C(=O)N1CCC[C@H]1C(=O)N[C@@H](Cc1c[nH]c2ccccc12)C(=O)N[C@@H](Cc1c[nH]c2ccccc12)C(=O)N1CCC[C@H]1C(=O)N[C@@H](Cc1c[nH]c2ccccc12)C(=O)N[C@@H](CCCN=C(N)N)C(=O)N[C@@H](CCCN=C(N)N)C(N)=O [LPWKWPWWPWRR]

- MIC [2]: > 28.2 µM
- MIC (Escherichia coli ML-35p): 7.05 µM (≈ 25 µg/mL)
- MIC [3]: 4.23 µM (≈ 15 µg/mL)
- MIC (Bacillus subtilis): 5.28 µM (≈ 18.7 µg/mL)
- MIC [4]: 4.65 µM (≈ 16.5 µg/mL)
SMILES: CC[C@H](C)[C@H](NC(=O)CNC(=O)[C@H](CCSC)NC(=O)CNC(=O)[C@H](C)NC(=O)[C@H](CO)NC(=O)[C@H](CCCCN)NC(=O)[C@H](C)NC(=O)[C@H](CC(C)C)NC(=O)[C@H](CC(=O)O)NC(=O)[C@@H](NC(=O)[C@H](C)NC(=O)[C@@H](NC(=O)[C@@H](NC(=O)[C@H](CCCCN)NC(=O)[C@@H](NC(=O)[C@H](CCCCN)NC(=O)[C@H](CC(=O)O)NC(=O)[C@H](CCCN=C(N)N)NC(=O)[C@@H](NC(=O)[C@@H](N)CO)[C@@H](C)CC)[C@@H](C)CC)[C@@H](C)O)[C@@H](C)CC)[C@@H](C)CC)C(=O)N[C@@H](CC(C)C)C(=O)N[C@@H](CCCCN)C(=O)N[C@H](C(=O)N[C@@H](CC(C)C)C(=O)N[C@H](C(=O)N[C@H]1CSSC[C@@H](C(=O)O)NC(=O)[C@H](CO)NC(=O)[C@H](CCCCN)NC(=O)[C@H](CC(=O)O)NC(=O)[C@H](CC(C)C)NC(=O)[C@H](CCCCN)NC1=O)[C@@H](C)CC)[C@@H](C)O [SIRDKIKTIAIDLAKSAGMGILKTLICKLDKSC]

- MIC (Pseudomonas aeruginosa): 50 µM (≈ 94 µg/mL)
- MIC [5]: 10 µM (≈ 18.8 µg/mL)
- MIC [1]: 0.4 µM (≈ 0.752 µg/mL)
- MIC (Klebsiella pneumoniae): 15 µM (≈ 28.2 µg/mL)
- MIC (Salmonella typhimurium): 25 µM (≈ 47 µg/mL)
SMILES: CC[C@H](C)[C@H](N)C(=O)N[C@@H](CC(C)C)C(=O)N1CCC[C@H]1C(=O)N[C@@H](Cc1c[nH]c2ccccc12)C(=O)N[C@@H](CCCCN)C(=O)N[C@@H](Cc1c[nH]c2ccccc12)C(=O)N[C@@H](C)C(=O)N[C@@H](Cc1c[nH]c2ccccc12)C(=O)N[C@@H](Cc1c[nH]c2ccccc12)C(=O)N1CCC[C@H]1C(=O)N[C@@H](Cc1c[nH]c2ccccc12)C(=O)N[C@@H](CCCN=C(N)N)C(=O)N[C@@H](CCCN=C(N)N)C(N)=O [ILPWKWAWWPWRR]

- MIC [6]: ≥ 172 µM
SMILES: CC[C@H](C)[C@H](NC(=O)[C@H](CC(N)=O)NC(=O)[C@H](CCCN=C(N)N)NC(=O)[C@H](CCC(N)=O)NC(=O)[C@H](Cc1c[nH]c2ccccc12)NC(=O)[C@@H](N)Cc1ccccc1)C(=O)N[C@@H](CCCN=C(N)N)C(=O)N[C@@H](CCCCN)C(=O)N[C@@H](Cc1ccccc1)C(=O)N[C@@H](CCCN=C(N)N)C(N)=O [FWQRNIRKFR]

- MIC [6]: ≥ 52.4 µM
SMILES: NC(=O)[C@H](CCCN=C(N)N)NC(=O)[C@H](Cc1c[nH]c2ccccc12)NC(=O)[C@H](CCCN=C(N)N)NC(=O)[C@H](Cc1c[nH]c2ccccc12)NC(=O)[C@H](CCCN=C(N)N)NC(=O)[C@H](Cc1c[nH]c2ccccc12)NC(=O)[C@@H](N)Cc1ccccc1 [FWRWRWR]

- MIC (Escherichia coli JW0013): 2.03 µM (≈ 4.8 µg/mL)
SMILES: CC[C@H](C)[C@H](NC(=O)[C@H](CCCN=C(N)N)NC(=O)[C@H](CCCN=C(N)N)NC(=O)[C@@H]1CCCN1C(=O)[C@@H]1CCCN1C(=O)[C@H](CCCN=C(N)N)NC(=O)[C@@H]1CCCN1C(=O)[C@H](CCCN=C(N)N)NC(=O)[C@@H]1CCCN1C(=O)[C@H](CC(C)C)NC(=O)[C@H](Cc1cnc[nH]1)NC(=O)[C@@H]1CCCN1C(=O)[C@@H]1CCCN1C(=O)[C@H](CCCCN)NC(=O)[C@H](CC(=O)O)NC(=O)[C@@H](N)C(C)C)C(=O)N[C@@H](Cc1ccc(O)cc1)C(=O)N[C@@H](CC(N)=O)C(=O)N[C@@H](CCCN=C(N)N)C(N)=O [VDKPPHLPRPRPPRRIYNR]

- MIC [2]: 1.57 µM (≈ 5.29 µg/mL)
- MIC [7]: > 30 µM
- MIC [8]: 2.17 µM (≈ 7.34 µg/mL)
- MIC (Escherichia coli): 1.05 µM and 1.17 µM
- MIC [9]: 1.67 µM (≈ 5.64 µg/mL)
- MIC (Escherichia coli ML-35p): 2.2 µM (≈ 7.44 µg/mL)
- MIC [10]: 3.81 µM (≈ 12.9 µg/mL)
- MIC [4]: > 30 µM
SMILES: CC[C@H](C)[C@H](NC(=O)[C@@H](NC(=O)[C@@H](NC(=O)[C@H](CCCN=C(N)N)NC(=O)[C@H](Cc1cnc[nH]1)NC(=O)[C@H](Cc1ccccc1)NC(=O)[C@H](Cc1cnc[nH]1)NC(=O)CNC(=O)[C@H](CCCCN)NC(=O)[C@H](CO)NC(=O)[C@H](CCCCN)NC(=O)[C@H](CC(=O)O)NC(=O)[C@H](Cc1cnc[nH]1)NC(=O)[C@H](CC(=O)O)NC(=O)[C@H](CCCN=C(N)N)NC(=O)CNC(=O)[C@H](CCC(=O)O)NC(=O)[C@H](CCC(N)=O)NC(=O)[C@H](CCCCN)NC(=O)[C@H](CC(N)=O)NC(=O)[C@@H](N)Cc1cnc[nH]1)C(C)C)C(C)C)C(=O)N[C@@H](Cc1cnc[nH]1)C(=O)N[C@@H](Cc1cnc[nH]1)C(=O)N[C@@H](CCCCN)C(=O)NCC(=O)NCC(=O)N[C@@H](CCCCN)C(=O)N[C@@H](C)C(=O)N[C@@H](Cc1cnc[nH]1)C(=O)O [HNKQEGRDHDKSKGHFHRVVIHHKGGKAH]

- MIC (Aspergillus fumigatus): 18 µM (≈ 39 µg/mL)
SMILES: CC(C)[C@H](NC(=O)[C@@H](N)CCCCN)C(=O)N[C@@H](C)C(=O)N[C@@H](CCCCN)C(=O)N[C@@H](CCC(N)=O)C(=O)N[C@@H](CCC(=O)O)C(=O)N[C@@H](CCCCN)C(=O)N[C@@H](CCCCN)C(=O)N[C@@H](CCCCN)C(=O)N[C@@H](CCCCN)C(=O)N[C@@H](CCCCN)C(=O)N[C@H](C(=O)NCC(=O)N[C@@H](CCCN=C(N)N)C(=O)N[C@@H](C)C(=O)N[C@@H](CCCCN)C(=O)N[C@@H](CCCN=C(N)N)C(=O)N[C@@H](CCCN=C(N)N)C(=O)O)[C@@H](C)O [KVAKQEKKKKKTGRAKRR]

- MIC [6]: ≥ 176 µM
SMILES: NC(=O)C[C@H](NC(=O)[C@H](CCCN=C(N)N)NC(=O)[C@H](CCCN=C(N)N)NC(=O)[C@H](Cc1c[nH]c2ccccc12)NC(=O)[C@@H](N)Cc1ccccc1)C(=O)N[C@@H](Cc1ccccc1)C(=O)N[C@@H](Cc1c[nH]c2ccccc12)C(=O)N[C@@H](CCCN=C(N)N)C(=O)N[C@@H](CCCN=C(N)N)C(N)=O [FWRRNFWRR]

- MIC [6]: ≥ 142 µM
SMILES: CC[C@H](C)[C@H](NC(=O)[C@H](CC(N)=O)NC(=O)[C@H](CCCN=C(N)N)NC(=O)[C@H](CCC(N)=O)NC(=O)[C@H](Cc1c[nH]c2ccccc12)NC(=O)[C@@H](N)Cc1ccccc1)C(=O)N[C@@H](CCCN=C(N)N)C(=O)N[C@@H](CCCCN)C(=O)N[C@H](C(=O)N[C@@H](CCCCN)C(=O)N[C@@H](CCCCN)C(=O)N[C@@H](CCCCN)C(=O)N[C@@H](CCCCN)C(N)=O)C(C)C [FWQRNIRKVKKKK]

- MIC [6]: ≥ 174 µM
SMILES: CC(C)[C@H](NC(=O)[C@H](CCCCN)NC(=O)[C@H](CCCN=C(N)N)NC(=O)[C@H](Cc1ccccc1)NC(=O)[C@H](CC(N)=O)NC(=O)[C@H](CCCN=C(N)N)NC(=O)[C@H](CCC(N)=O)NC(=O)[C@H](Cc1c[nH]c2ccccc12)NC(=O)[C@@H](N)Cc1ccccc1)C(=O)N[C@@H](CCCN=C(N)N)C(N)=O [FWQRNFRKVR]
